Measurements reported in paper PMC5734605 (Journal of Medicinal Chemistry, 2017).

Biological target: TbNMT (Trypanosoma brucei brucei, UniProt Q388H8)
Sequence (Q388H8 1-446): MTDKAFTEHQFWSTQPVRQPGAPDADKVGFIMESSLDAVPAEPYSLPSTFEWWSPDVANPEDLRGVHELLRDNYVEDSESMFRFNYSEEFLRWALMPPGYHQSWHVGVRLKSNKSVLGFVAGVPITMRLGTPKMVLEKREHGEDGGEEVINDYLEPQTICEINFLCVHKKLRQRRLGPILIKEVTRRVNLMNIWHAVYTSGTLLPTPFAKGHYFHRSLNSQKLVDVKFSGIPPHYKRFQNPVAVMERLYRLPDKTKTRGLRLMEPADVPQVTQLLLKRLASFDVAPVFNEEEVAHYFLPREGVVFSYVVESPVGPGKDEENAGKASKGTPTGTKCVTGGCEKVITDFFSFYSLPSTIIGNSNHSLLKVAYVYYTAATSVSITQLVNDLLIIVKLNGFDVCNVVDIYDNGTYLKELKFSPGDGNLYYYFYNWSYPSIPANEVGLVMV

Molecule | activity against TbNMT (in words)
Cc1nn(C)c(C)c1COc1cccc(-c2cccc(C3CCNCC3)c2)c1 [Compound 17, 4-(3′-((1,3,5-Trimethyl-1H-pyrazol-4-yl)methoxy)-[1,1′-biphenyl]-3-yl)piperidine] | completely inactive
3-((2,6-Dichloro-4-(3-(piperidin-4-yl)propyl)phenoxy)methyl)-2-methylpyridine [Compound 70] | no in vitro activity
